The test concerns the target CDK12 complexed with Cyclin K (Homo sapiens (Human), UniProt Q9NYV4). Nature of the test: CDK enzymatic assay (HTRF, LANCE Ultra kinase assay). It counts as biochemical. The conditions noted are these: 60 minutes pre-incubation, 1 mM ATP. The method, then:
The following activity of the CDK enzymes in complex with their respective cyclins we assayed: CDK1 complexed with Cyclin B1; CDK2 complexed with Cyclin E1; CDK4 complexed with Cyclin D1; CDK6 complexed with Cyclin D1; CDK6 complexed with Cyclin D3; CDK9 complexed with Cyclin T1; CDK7 complexed with Cyclin H/MAT1; CDK2 complexed with Cyclin A2; CDK5 complexed with p35; CDK12 complexed with Cyclin K; CDK13 complexed with Cyclin K. These in vitro enzyme activity are assayed using homogeneous time-resolved energy transfer (HTRF), which measures phosphorylation of a peptide substrate. The LANCE® Ultra kinase assay (PerkinElmer) uses a ULight™-labeled EIF4E-binding protein 1 (THR37/46) peptide (DYSTTPGGTLFSTTPGTRI) (SEQ ID NO: 1) substrate and a Europium-labeled anti-phospho-4E-BP1 antibody (CDK2, CDK1, CDK4, CDK6, CDK9, CDK12, CDK13) or ULight™-labeled Myelin Basic Protein peptide (VTPRTPPP) (SEQ ID NO: 2) substrate and a Europium-labeled anti-phospho-MBP antibody (CDK7). Each CDK enzyme activity assays utilized human CDK co-expressed as N-terminal GST-tagged protein with its full length cyclin partner using a baculovirus expression system.
Enzyme was pre-incubated with compounds for 30 minutes (CDK1,2,4,6,9) or 60 minutes (CDK7, CDK12, CDK13) prior to addition of ATP and Ulight-peptide (1 mM and 50 nM final, respectively), in assay buffer containing 50 mM HEPES pH 7.5, 1 mM EGTA, 10 mM MgCl2, 2 mM DTT, 0.05 mg/mL BSA, and 0.01% Tween 20.
The reaction was then incubated for 60-90 minutes at room temperature. The reactions were stopped by the addition of EDTA and Europium labeled antibody, for a final concentration of 15 mM and 1.0-1.5 nM, respectively. HTRF signals were read after 15-120 minutes. A ratio of fluorescence transferred to the labeled substrate (665 nm) relative to fluorescence of the Europium donor (620 nm) represents the extent of phosphorylation. Ratios for treated wells were normalized to DMSO only (100% activity) and no enzyme (0% activity) controls. Normalized data was analyzed using a three or four parameter dose response curve to determine IC50 for each compound and are shown in Table A. Control reference inhibitors were included on each plate.
A general note: In TR-FRET formats the signal depends on donor and acceptor labels being close together.
Sequence of CDK12 complexed with Cyclin K (Q9NYV4 whole entry): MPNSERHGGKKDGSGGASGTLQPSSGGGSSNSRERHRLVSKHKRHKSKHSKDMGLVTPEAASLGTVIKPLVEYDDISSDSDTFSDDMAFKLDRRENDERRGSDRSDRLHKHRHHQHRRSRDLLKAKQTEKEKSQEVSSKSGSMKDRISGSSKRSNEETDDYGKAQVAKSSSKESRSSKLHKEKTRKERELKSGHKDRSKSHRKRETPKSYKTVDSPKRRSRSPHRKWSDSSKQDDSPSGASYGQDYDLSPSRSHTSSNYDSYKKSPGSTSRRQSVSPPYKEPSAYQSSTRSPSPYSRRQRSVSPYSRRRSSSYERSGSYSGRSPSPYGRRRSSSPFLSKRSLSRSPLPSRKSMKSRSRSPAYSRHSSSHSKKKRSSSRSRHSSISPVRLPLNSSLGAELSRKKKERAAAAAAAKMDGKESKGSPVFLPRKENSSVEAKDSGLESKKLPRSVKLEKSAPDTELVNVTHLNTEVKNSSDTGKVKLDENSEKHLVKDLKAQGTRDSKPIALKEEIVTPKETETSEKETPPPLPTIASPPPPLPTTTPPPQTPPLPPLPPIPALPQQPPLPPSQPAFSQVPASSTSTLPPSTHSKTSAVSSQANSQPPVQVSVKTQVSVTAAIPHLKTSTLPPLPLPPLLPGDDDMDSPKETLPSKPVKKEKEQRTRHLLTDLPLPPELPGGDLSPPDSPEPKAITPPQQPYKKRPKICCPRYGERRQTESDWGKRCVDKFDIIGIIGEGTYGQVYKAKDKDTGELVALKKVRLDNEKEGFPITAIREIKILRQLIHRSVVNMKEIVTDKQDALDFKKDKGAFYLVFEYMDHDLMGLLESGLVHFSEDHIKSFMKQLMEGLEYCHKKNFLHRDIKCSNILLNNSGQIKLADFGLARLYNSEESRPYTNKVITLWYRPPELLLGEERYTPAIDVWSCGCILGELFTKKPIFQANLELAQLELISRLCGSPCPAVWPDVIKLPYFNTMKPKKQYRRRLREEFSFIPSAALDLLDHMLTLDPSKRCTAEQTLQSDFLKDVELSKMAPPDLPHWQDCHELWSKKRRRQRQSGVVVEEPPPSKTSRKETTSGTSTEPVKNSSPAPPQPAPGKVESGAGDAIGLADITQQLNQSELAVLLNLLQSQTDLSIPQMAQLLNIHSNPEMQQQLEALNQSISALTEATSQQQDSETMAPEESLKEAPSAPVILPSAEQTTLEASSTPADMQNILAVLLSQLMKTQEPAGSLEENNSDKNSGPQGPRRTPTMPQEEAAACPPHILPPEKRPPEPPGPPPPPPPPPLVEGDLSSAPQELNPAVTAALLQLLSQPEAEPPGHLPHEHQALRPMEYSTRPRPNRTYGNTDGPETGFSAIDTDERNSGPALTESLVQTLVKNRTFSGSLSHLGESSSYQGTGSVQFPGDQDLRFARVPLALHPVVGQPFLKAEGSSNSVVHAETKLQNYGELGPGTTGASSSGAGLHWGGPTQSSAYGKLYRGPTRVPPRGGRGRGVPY
Sequence of CDK12 complexed with Cyclin K (O75909 whole entry partner): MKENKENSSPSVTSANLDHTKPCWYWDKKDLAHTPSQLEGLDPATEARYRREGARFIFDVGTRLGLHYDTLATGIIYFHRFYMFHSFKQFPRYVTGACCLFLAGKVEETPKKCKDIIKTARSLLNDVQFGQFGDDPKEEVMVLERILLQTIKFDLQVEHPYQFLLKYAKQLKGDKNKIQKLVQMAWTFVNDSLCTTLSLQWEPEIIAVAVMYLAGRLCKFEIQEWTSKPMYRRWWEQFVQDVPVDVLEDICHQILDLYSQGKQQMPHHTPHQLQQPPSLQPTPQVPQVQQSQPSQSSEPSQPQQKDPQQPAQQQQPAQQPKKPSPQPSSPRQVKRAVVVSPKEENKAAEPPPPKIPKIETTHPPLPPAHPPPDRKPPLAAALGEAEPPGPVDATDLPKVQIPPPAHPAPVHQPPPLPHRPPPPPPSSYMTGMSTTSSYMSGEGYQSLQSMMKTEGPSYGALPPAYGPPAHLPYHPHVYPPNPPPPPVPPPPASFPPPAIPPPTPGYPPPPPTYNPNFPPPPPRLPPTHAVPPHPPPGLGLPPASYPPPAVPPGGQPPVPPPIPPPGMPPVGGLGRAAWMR
For the compound `Cc1ncc(C#N)c2c1ncn2[C@H]1CCC[C@@H](Nc2ncc(C#N)c(-c3cnn(CC(F)F)c3)n2)C1` [Example 48, 1-((1S,3R)-3-((5-Cyano-4-(1-(2,2-difluoroethyl)-1H-pyrazol-4-yl)pyrimidin-2-yl)amino)cyclohexyl)-4-methyl-1H-imidazo[4,5-c]pyridine-7-carbonitrile], the IC50 is under 50 nM.
Compound `N#Cc1cnc(N[C@@H]2CCC[C@H](n3cnc4cc(F)cc(C#N)c43)C2)nc1-c1cnn(CC(F)F)c1` [Example 49, 1-((1S,3R)-3-((5-Cyano-4-(1-(2,2-difluoroethyl)-1H-pyrazol-4-yl)pyrimidin-2-yl)amino)cyclohexyl)-5-fluoro-1H-benzo[d]imidazole-7-carbonitrile] gave a half-inhibitory concentration (IC50) of under 50 nM.
Then `N#Cc1cc(C#N)c2c(c1)ncn2[C@H]1CCC[C@@H](Nc2ncc(C#N)c(-c3cnn(CC(F)F)c3)n2)C1` [Example 50, 1-((1S,3R)-3-((5-Cyano-4-(1-(2,2-difluoroethyl)-1H-pyrazol-4-yl)pyrimidin-2-yl)amino)cyclohexyl)-1H-benzo[d]imidazole-5,7-dicarbonitrile], with under 50 nM.
The same measure for `N#Cc1cc(C(F)(F)F)cc2ncn([C@H]3CCC[C@@H](Nc4ncc(C(F)(F)F)c(-c5cnn(CC(F)F)c5)n4)C3)c12` [Example 51, 1-((1S,3R)-3-((4-(1-(2,2-Difluoroethyl)-1H-pyrazol-4-yl)-5-(trifluoromethyl)pyrimidin-2-yl)amino)cyclohexyl)-5-(trifluoromethyl)-1H-benzo[d]imidazole-7-carbonitrile]: 50 to 500 nM; for `N#Cc1cncc2ncn([C@H]3CCC[C@@H](Nc4ncc(C(F)(F)F)c(-c5cnn(CC(F)F)c5)n4)C3)c12` [Example 52, 1-((1S,3R)-3-((4-(1-(2,2-Difluoroethyl)-1H-pyrazol-4-yl)-5-(trifluoromethyl)pyrimidin-2-yl)amino)cyclohexyl)-1H-imidazo[4,5-c]pyridine-7-carbonitrile]: under 50 nM; for `N#Cc1cc2ncn([C@H]3CCC[C@@H](Nc4ncc(C#N)c(-c5cnn(CC(F)F)c5)n4)C3)c2[n+]([O-])c1` [Example 53, 6-Cyano-3-((1S,3R)-3-((5-cyano-4-(1-(2,2-difluoroethyl)-1H-pyrazol-4-yl)pyrimidin-2-yl)amino)cyclohexyl)-3H-imidazo[4,5-b]pyridine 4-oxide]: under 50 nM.
Take `Cc1cc(F)cc2ncn([C@H]3CCC[C@@H](Nc4ncc(C#N)c(-c5cnn(CC(F)F)c5)n4)C3)c12` [Example 54, 4-(1-(2,2-Difluoroethyl)-1H-pyrazol-4-yl)-2-(((1R,3S)-3-(5-fluoro-7-methyl-1H-benzo[d]imidazol-1-yl)cyclohexyl)amino)pyrimidine-5-carbonitrile]: the IC50 is under 50 nM.
Take `Cc1cc(C#N)cc2ncn([C@H]3CCC[C@@H](Nc4ncc(C#N)c(-c5cnn(CC(F)F)c5)n4)C3)c12` [Example 55, 1-((1S,3R)-3-((5-Cyano-4-(1-(2,2-difluoroethyl)-1H-pyrazol-4-yl)pyrimidin-2-yl)amino)cyclohexyl)-7-methyl-1H-benzo[d]imidazole-5-carbonitrile]: the IC50 is under 50 nM.
In the case of `Cn1cc(-c2cnc(N[C@@H]3CCC[C@H](n4cnc5cc(C#N)cnc54)C3)nc2-c2cnn(CC(F)F)c2)cn1` [Example 56, 3-((1S,3R)-3-((4-(1-(2,2-Difluoroethyl)-1H-pyrazol-4-yl)-5-(1-methyl-1H-pyrazol-4-yl)pyrimidin-2-yl)amino)cyclohexyl)-3H-imidazo[4,5-b]pyridine-6-caronitrile], the IC50 was over 500 nM.
The same measure for `N#Cc1cnc2c(c1)ncn2[C@H]1CCC[C@@H](Nc2ncc(-c3cn[nH]c3)c(-c3cnn(CC(F)F)c3)n2)C1` [Example 57, 3-((1S,3R)-3-((4-(1-(2,2-Difluoroethyl)-1H-pyrazol-4-yl)-5-(1H-pyrazol-4-yl)pyrimidin-2-yl)amino)cyclohexyl)-3H-imidazo[4,5-b]pyridine-6-carbonitrile]: 50 to 500 nM.
`CC(C)(O)Cn1cc(-c2nc(N[C@@H]3CCC[C@H](n4cnc5cc(C#N)cnc54)C3)ncc2C#N)cn1` [Example 58, 3-((1S,3R)-3-((5-Cyano-4-(1-(2-hydroxy-2-methylpropyl)-1H-pyrazol-4-yl)pyrimidin-2-yl)amino)cyclohexyl)-3H-imidazo[4,5-b]pyridine-6-carbonitrile] displayed an IC50 of under 50 nM.
With `N#Cc1cnc2c(c1)ncn2[C@H]1CCC[C@@H](Nc2ncc(C#N)c(-c3cnn(C4CNC4)c3)n2)C1` [Example 59, 3-((1S,3R)-3-((4-(1-(Azetidin-3-yl)-1H-pyrazol-4-yl)-5-cyanopyrimidin-2-yl)amino)cyclohexyl)-3H-imidazo[4,5-b]pyridine-6-carbonitrile], the IC50 was under 50 nM.
Then `N#Cc1cnc2c(c1)ncn2[C@H]1CCC[C@@H](Nc2ncc(C#N)c(-c3cnn(CCN4CCOCC4)c3)n2)C1` [Example 60, 3-((1S,3R)-3-((5-Cyano-4-(1-(2-morpholinoethyl)-1H-pyrazol-4-yl)pyrimidin-2-yl)amino)cyclohexyl)-3H-imidazo[4,5-b]pyridine-6-carbonitrile], with 50 to 500 nM; and `Cn1cnc(-c2nc(N[C@@H]3CCC[C@H](n4cnc5cc(C#N)cnc54)C3)ncc2C#N)c1` [Example 61, 3-((1S,3R)-3-((5-Cyano-4-(1-methyl-1H-imidazol-4-yl)pyrimidin-2-yl)amino)cyclohexyl)-3H-imidazo[4,5-b]pyridine-6-carbonitrile], with under 50 nM.
Turning to `N#Cc1cnc2c(c1)ncn2[C@H]1CCC[C@@H](Nc2ncc(C#N)c(-c3cnn(CC(F)(F)F)c3)n2)C1` [Example 62, 3-((1S,3R)-3-((5-Cyano-4-(1-(2,2,2-trifluoroethyl)-1H-pyrazol-4-yl)pyrimidin-2-yl)amino)cyclohexyl)-3H-imidazo[4,5-b]pyridine-6-carbonitrile], the half-inhibitory concentration (IC50) was under 50 nM.
The compound `N#Cc1cnc2c(c1)ncn2[C@H]1CCC[C@@H](Nc2ncc(C#N)c(-c3cnn(C4CCOCC4)c3)n2)C1` [Example 63, 3-((1S,3R)-3-((5-Cyano-4-(1-(tetrahydro-2H-pyran-4-yl)-1H-pyrazol-4-yl)pyrimidin-2-yl)amino)cyclohexyl)-3H-imidazo[4,5-b]pyridine-6-carbonitrile] registered an IC50 of under 50 nM.
In the case of `Cn1cc(-c2nc(N[C@@H]3CCC[C@H](n4cnc5cc(C#N)cnc54)C3)ncc2C#N)cn1` [Example 64, 3-((1S,3R)-3-((5-Cyano-4-(1-methyl-1H-pyrazol-4-yl)pyrimidin-2-yl)amino)cyclohexyl)-3H-imidazo[4,5-b]pyridine-6-carbonitrile], the 50% inhibitory concentration (IC50) was under 50 nM.
As to `N#Cc1cnc2c(c1)ncn2[C@H]1CCC[C@@H](Nc2ncc(C#N)c(-c3cnn(-c4ccccc4)c3)n2)C1` [Example 65, 3-((1S,3R)-3-((5-Cyano-4-(1-phenyl-1H-pyrazol-4-yl)pyrimidin-2-yl)amino)cyclohexyl)-3H-imidazo[4,5-b]pyridine-6-carbonitrile], the IC50 was under 50 nM.
Then `N#Cc1cnc2c(c1)ncn2[C@H]1CCC[C@@H](Nc2ncc(C#N)c(-c3cnn(C4COC4)c3)n2)C1` [Example 66, 3-((1S,3R)-3-((5-Cyano-4-(1-(oxetan-3-yl)-1H-pyrazol-4-yl)pyrimidin-2-yl)amino)cyclohexyl)-3H-imidazo[4,5-b]pyridine-6-carbonitrile], with under 50 nM.

As a reminder, the IC50 is the concentration needed to halve the response being measured. The low end stands for higher potency, the high end for lower potency.

(Values after patent publication US20250353842A1, “BICYCLIC AMINE CDK12 INHIBITORS” (Incyte Corporation, priority 2022, published 2025).)
